Results reported in article PMC8333062, “Chemical tools for epichaperome-mediated interactome dysfunctions of the central nervous system” (Nature Communications, 2021).
“And” between values parts separate entries of the source, which are not always exact repeats. Equal entries are not always repeated. Where two headings read alike, the source gives them in different places.

Assays:
[1] = target: HSP90 pools in JNPL3 (AD transgenic) mouse brain lysate; assay: Fluorescence polarization (FP) competitive binding, cy3B-GM; details: read-out: FP relative affinity
in vitro = details: PAMPA, pH 7.4
PAMPA-BBB permeability = details: for PAMPA_BBB: Supplementary Table 6; for Papp at 16 h, 50 μM: pig, PAMPA, pH 7.4
[2] = for PAMPA_BBB: PAMPA; for PAMPA-BBB: pH 7.4
[3] = 10 µM PU-HZ151, 60 min
Protocol: PU-HZ151 (1 and 10 µM) was incubated with human, CD-1 mouse, Sprague Dawley rat, and beagle dog liver microsomes (0.5 mg protein/ml) and appropriate cofactors (2.5 mM NADPH and 3.3 mM MgCl2) in 100 mM phosphate buffer, pH 7.4, in a 37 °C shaking water bath. The incubation contained a final organic solvent concentration of 0.1% DMSO. Reactions were started with the addition of NADPH/magnesium chloride mix and stopped by removing 100 µL aliquots at selected time points (15, 30, and 60 min) and mixing with 200 µl of acetonitrile containing 100 ng/ml haloperidol (internal standard). […] Experimental controls consisted of: a) incubation with 1 or 5 µM propranolol as a positive control for metabolism, and b) incubation of 1 and 10 µM PU-HZ151 with heat-inactivated microsomes (0.5 mg protein mL^−1) for 0 and 60 min. All samples were assayed in duplicate. To determine metabolic stability of PU-HZ151, the percent remaining at each time point was calculated by dividing the peak area ratio of PU-HZ151 /internal standard at each time point by the mean peak area ratio at 0 min, multiplied by 100.
In order to detect and characterize metabolites of PU-HZ151 formed in selected microsomal incubation samples, the following procedures were used to prepare the samples: (1) microsomal incubation samples generated in the metabolic stability experiments (1 and 10 µM PU-HZ151, duplicate replicates per timepoint) were initially processed by addition of 2 parts acetonitrile containing the internal standard haloperidol, to 1 part sample, followed by vortexing, centrifugation, and transfer of the supernatant to a 1.5 mL microcentrifuge tube. Samples were stored at −80 °C prior to analysis for metabolites. (2) Samples were thawed to room temperature, vortexed, centrifuged, and a volume of the supernatant diluted 1:1 with 5% acetonitrile, to reduce the percent acetonitrile in the final sample. Samples were then transferred to HPLC vials with glass inserts for subsequent LC-MS analysis.
Samples were analyzed by LC-MS using positive-ion electrospray ionization and reverse-phase chromatography in full-scan mode with MS/MS product-ion spectra generated for detected metabolite masses. This was performed using the MS2 scan mode of the G6410B mass spectrometer to produce MS/MS product-ion spectra for masses detected at sufficient intensities. Chromatography was performed using a ZORBAX Eclipse XDB-C18 4.6 × 50 mm, 5 µm, column, with gradient elution at 1 mL min^−1. Mobile phase was comprised of A = MilliQ Water with 0.1% formic acid, B = acetonitrile.

[4] = Pharmacokinetic studies in mice (LC-MS/MS); assay type: in vivo, B6D2F1 mice; set-up: Plasma level: unit: uM; details: individual animals
Protocol: Blood and brain tissue were collected following euthanasia at the scheduled time points of 5, 30 min, 1, 4, and 8 h following iv dosing and of 30 min, 1, 4, and 8 h following po dosing. Brain samples were immediately flash frozen in liquid nitrogen following collection and stored at −80 °C until analysis. Blood samples were collected into an EDTA tube by heart puncture and centrifuged at 17,000×g for 5 min at 4 °C to separate the plasma and immediately frozen on dry ice and stored at −80 °C until analysis. […] This was homogenized, extracted with methylene chloride, and evaporated on a GeneVac. […] Drug concentration (μM) in the brain was then modified to account for an average water space of 0.8 mL g^−1.

[5] = displacement of cy3B-GM, 24 h, 4 °C, mean±SD, n=3

Compound	EC50 [1, 5] [nM]	PAMPA_BBB [2]	PAMPA-BBB [2]	further results
CC(C)NCCCn1c(Sc2cc3c(cc2Br)OCO3)nc2c(N)ncnc21 [Compound 3]	122 ± 7			
C=Cc1cc2c(cc1Cc1nc3c(N)nc(F)nc3n1CCCNC(C)C)OCO2 [Compound 22]	146 ± 9			Papp at 16 h, 50 μM (in vitro): 5.6 ± 0.2 ×10⁻⁶ cm/s; PAMPA_BBB (PAMPA-BBB permeability): 5.6±0.2
CCCN(CCCn1c(Cc2cc3c(cc2I)OCO3)nc2c(N)nc(F)nc21)CC1CC1 [Compound 63]	43 ± 4	8.4±2.1	8.4±2.1 10-6 cms-1	
CC(C)N(CCO)CCCn1c(Cc2cc3c(cc2I)OCO3)nc2c(N)nc(F)nc21 [Compound 69]		1.1±0.1	1.1±0.1 10-6 cms-1	EC50 [1]: 61 ± 2 nM
Nc1nc(F)nc2c1nc(Cc1cc3c(cc1I)OCO3)n2CCCN1CCN(CCO)CC1 [Compound 71]		4.7±0.5	4.7±0.5 10-6 cms-1	EC50 [1]: 200 ± 5 nM
CC(C)CNCCn1c(Sc2cc3c(cc2I)OCO3)nc2c(N)ncnc21 [Compound 84]	14 ± 2	8.9±0.5	8.9±0.5 10-6 cms-1	
C=CCN(C)CCCn1c(Cc2cc3c(cc2I)OCO3)nc2c(N)nc(F)nc21 [Compound 65]	44 ± 4	11.3±1.9	11.3±1.9 10-6 cms-1	
CCN(CCCn1c(Cc2cc3c(cc2I)OCO3)nc2c(N)nc(F)nc21)C(C)C [Compound 61]	30 ± 13	7.5±0.2	7.5±0.2 10-6 cms-1	
CC(C)NCCCn1c(Sc2cc3c(cc2-c2ccc(C(C)(C)C)cc2)OCO3)nc2c(N)ncnc21 [Compound 11]	2600	12.5±0.6	12.5±0.6 10-6 cms-1	
C=CCc1cc2c(cc1Sc1nc3c(N)ncnc3n1CCCNC(C)C)OCO2 [Compound 8]	122 ± 4	6.7±0.7	6.7±0.7 10-6 cms-1	
CC(C)NCCCn1c(Sc2cc3c(cc2C#N)OCO3)nc2c(N)ncnc21 [Compound 5]	285 ± 13			
CC(C)NCCCn1c(Sc2cc3c(cc2I)OCCCO3)nc2c(N)ncnc21 [Compound 35]	232 ± 10			
CCc1cc2c(cc1Cc1nc3c(N)nc(F)nc3n1CCCNC(C)C)OCO2 [Compound 21]	813 ± 56			Papp at 16 h, 50 μM (in vitro): 5.9 ± 0.6 ×10⁻⁶ cm/s; PAMPA_BBB (PAMPA-BBB permeability): 5.9±0.6
CCN(C)CCCn1c(Cc2cc3c(cc2I)OCO3)nc2c(N)nc(F)nc21 [Compound 62]	45 ± 19	7.5±0.1	7.5±0.1 10-6 cms-1	
C#CCN(C)CCCn1c(Cc2cc3c(cc2I)OCO3)nc2c(N)nc(F)nc21 [Compound 64]	30 ± 6			PAMPA_BBB (PAMPA-BBB permeability): 11.1±0.1; Papp at 16 h, 50 μM (PAMPA-BBB permeability): 11.1 ×10⁻⁶ cm/s
C=Cc1cc2c(cc1Sc1nc3c(N)ncnc3n1CCCNC(C)C)OCO2 [Compound 7]	213 ± 7	6.1±0.1	6.1±0.1 10-6 cms-1	
CC(C)(C)NCCCn1c(Cc2cc3c(cc2I)OCO3)nc2c(N)nc(F)nc21 [Compound 59]	12.7 ± 1.6			PAMPA_BBB (PAMPA-BBB permeability): 13.3±1.4; Papp at 16 h, 50 μM (PAMPA-BBB permeability): 13.3 ×10⁻⁶ cm/s
CC(C)NCCCn1c(Sc2cc3c(cc2-c2ccccc2)OCO3)nc2c(N)ncnc21 [Compound 9]	270 ± 10	9.9±0.5	9.9±0.5 10-6 cms-1	
CC(C)NCCCn1c(Sc2cc3c(cc2I)OCCO3)nc2c(N)ncnc21 [Compound 28]	34.5 ± 1.7			Papp at 16 h, 50 μM (in vitro): 6.6 ± 0.6 ×10⁻⁶ cm/s; PAMPA_BBB (PAMPA-BBB permeability): 6.6±0.6
CC(C)CNCCn1c(Sc2cc3c(cc2I)CCO3)nc2c(N)ncnc21 [Compound 86]	5.5 ± 0.6	9.3±0.2	9.3±0.2 10-6 cms-1	

Compound	EC50 [1, 5] [nM]	PAMPA_BBB [2]	PAMPA-BBB [2]	further results
CC1CN1CCCn1c(Cc2cc3c(cc2I)OCO3)nc2c(N)nc(F)nc21 (centres unmarked) [Compound 66]		5.8±1.5	5.8±1.5 10-6 cms-1	EC50 [1]: 105 ± 5 nM
CC(=O)c1cc2c(cc1Sc1nc3c(N)ncnc3n1CCCNC(C)C)OCO2 [Compound 6]	103 ± 7			
NCCn1c(Sc2cc(O)c(O)cc2I)nc2c(N)ncnc21 [Compound M5]				% Peak area of metabolite ([3]; replicate 1): 2.5%; % Peak area of metabolite ([3]; replicate 2): 2.9%
CC(C)NCCCn1c(Cc2cc3c(cc2C#N)OCO3)nc2c(N)nc(F)nc21 [Compound 20]	219 ± 19			
CC(C)NCCCn1c(Cc2cc(Br)c3c(c2)OCO3)nc2c(N)nc(F)nc21 [Compound 18]	191 ± 6			
CC(C)(C)CNCCn1c(Sc2cc(O)c(O)cc2I)nc2c(N)ncnc21 [Compound M2]				Brain level ([4]; time 5 min): 0 (3×) and 0.75 and 0.71; Brain level ([4]; time 0.5 h): 0.02 and 0.49 and 0 (2×); Brain level ([4]; time 1 h): 0 (3×) and 0.04; Brain level ([4]; time 4 h): 0; Brain level ([4]; time 8 h): 0; Plasma level ([4]; time 5 min): 0.04 and 0 (4×); Plasma level ([4]; time 0.5 h): 0.02 and 0 (3×); Plasma level ([4]; time 1 h): 0 (3×) and 0.03; Plasma level ([4]; time 4 h): 0; Plasma level ([4]; time 8 h): 0; % Peak area of metabolite ([3]; replicate 1): 13.0%; % Peak area of metabolite ([3]; replicate 2): 9.0%
CC(C)N(C)CCCn1c(Cc2cc3c(cc2I)OCO3)nc2c(N)nc(F)nc21 [Compound 60]	39 ± 2	5.8±1.3	5.8±1.3 10-6 cms-1	
C[N+](C)(C)CCCn1c(Cc2cc3c(cc2I)OCO3)nc2c(N)nc(F)nc21 [Compound 72]	155 ± 5			PAMPA_BBB (PAMPA-BBB permeability): 1.3±0.1
CC(C)NCCCn1c(Sc2cc3ccccc3cc2I)nc2c(N)ncnc21 [Compound 58]	97 ± 3	10.8±0.2	10.8±0.2 10-6 cms-1	
Nc1nc(F)nc2c1nc(Cc1cc3c(cc1I)OCO3)n2CCCN1CCCCC1 [Compound 67]	112 ± 6			Papp at 16 h, 50 μM (in vitro): 6.9 ± 0.2 ×10⁻⁶ cm/s; PAMPA_BBB (PAMPA-BBB permeability): 6.9±0.2
Nc1ncnc2c1nc(Sc1cc3c(cc1I)OCC3)n2CCCBr [Compound 40]	8 ± 0.4			Papp at 16 h, 50 μM (in vitro): 7.7 ± 0.8 ×10⁻⁶ cm/s; PAMPA_BBB (PAMPA-BBB permeability): 7.7±0.8
Nc1nc(F)nc2c1nc(Cc1cc3c(cc1I)OCO3)n2CCCN1CCOCC1 [Compound 68]		6.3±1.1	6.3±1.1 10-6 cms-1	EC50 [1]: 202 ± 7 nM
CC(C)NCCCn1c(Cc2cc(I)c3c(c2)OCO3)nc2c(N)nc(F)nc21 [Compound 17]	85 ± 10			
CC(C)NCCCn1c(Sc2cc3c(cc2-c2ccc(Br)cc2)OCO3)nc2c(N)ncnc21 [Compound 10]	732 ± 13			Papp at 16 h, 50 μM (in vitro): 11.5 ± 0.4 ×10⁻⁶ cm/s; PAMPA_BBB (PAMPA-BBB permeability): 11.5±0.4
Nc1nc(F)nc2c1nc(Cc1cc3c(cc1I)OCO3)n2CCCN(CCO)C1CCCCC1 [Compound 70]	24 ± 2	8.5±0.1	8.5±0.1 10-6 cms-1	
CC(C)NCCCn1c(Sc2cc3c(cc2I)CCC3)nc2c(N)ncnc21 [Compound 53]	4.5 ± 0.5			PAMPA_BBB (PAMPA-BBB permeability): 15.1±0.7; Papp at 16 h, 50 μM (PAMPA-BBB permeability): 15.1 ×10⁻⁶ cm/s
CC(C)NCCCn1c(Sc2cc3c(cc2-c2ccc(N(C)C)cc2)OCO3)nc2c(N)ncnc21 [Compound 12]	1390	9.2±0.3	9.2±0.3 10-6 cms-1	
NCCn1c(Sc2cc3c(cc2I)OCO3)nc2c(N)ncnc21 [Compound M1]				Brain level ([4]; time 5 min): 0; Brain level ([4]; time 0.5 h): 0; Brain level ([4]; time 1 h): 0; Brain level ([4]; time 4 h): 0; Brain level ([4]; time 8 h): 0; Plasma level ([4]; time 5 min): 0; Plasma level ([4]; time 0.5 h): 0; Plasma level ([4]; time 1 h): 0; Plasma level ([4]; time 4 h): 0; Plasma level ([4]; time 8 h): 0; % Peak area of metabolite ([3]; replicate 1): 53.0%; % Peak area of metabolite ([3]; replicate 2): 59.1%
C=CCc1cc2c(cc1Cc1nc3c(N)nc(F)nc3n1CCCNC(C)C)OCO2 [Compound 23]	> 5000			Papp at 16 h, 50 μM (in vitro): 4.6 ± 0.6 ×10⁻⁶ cm/s; PAMPA_BBB (PAMPA-BBB permeability): 4.6±0.6
